# Measured values from US8344028B2, “Gamma-amino-butyric acid derivatives as GABAB receptor ligands” (XenoPort, Inc., priority 2009, dated 2013).
# Biological target: GABAB receptor (Homo sapiens, UniProt Q9UBS5)
# Experiment: GABAB receptor agonist or partial agonist activity by binding, electrophysiology, cAMP and/or Ca2+ assay methods (Examples 83-86)
# Format: cell-based
# Method: An assay using rat cerebral cortex membranes was used to determine the affinity of GABAB receptor ligands for the GABAB receptor.
# An assay buffer of 50 mM Tris pH 7.4 was prepared with 100 μM of isoguvacine, to block GABAA interactions. The assay buffer with isoguvacine was used for dilution of membranes, compounds, and radiolabel.
# Rat cerebral cortex membranes were diluted in assay buffer at 1 mg/mL and aliquoted into a 96-well plate at 900 μL/well. Buffer or test compound were added at 20-times final concentration in the buffer at 50 μL/well. Membranes and test compounds or buffer were incubated for 10 min. at room temperature. Radiolableled [S—(R*,R*)]-[3-[[1-(3,4-dichlorophenyl)ethyl]amino]-2-hydroxypropyl](cyclohexylmethyl) phosphinic acid (CGP54626) was then added at 50 μL/well in the buffer at 1-10 nM concentration in 50 μl. […] The assay mixture was filtered using Brandell filtration apparatus and GFB filters, washed twice with 3 mL of 4° C., 50 mM Tris pH 7.4, buffer without isoguvacine. The filters were then dried at room temperature and the dried filters punched out and placed in individual vials. Three (3) mL of scintillation fluid was added to each vial and the radiolabel counted on the scintillation counter. The inverse amount of radiolabel was indicative of binding of a test compound to the GABAB receptor.
# The following procedure was used to determine the level of intracellular cAMP. Recombinant HEK cells expressing the GABAB R1a2 receptor were used in the experiments. cAMP levels were measured using a cAMP XS^+ HitHunter™ Chemiluminescence Assay Kit (90-0075-02, GE Healthcare Biosciences Corp.). Cells were seeded overnight at 5,000 cells per well, in black, clear bottom 96-well plates. The following morning, cells were washed twice with 100 μL PBS per well. Forskolin was weighed out and dissolved in DMSO to a final concentration 100 mM. One-hundred (100) μM forskolin solutions were prepared in PBS with and without test compound at 1-times final concentration. Thirty (30) μL of the test solutions were added to the wells and incubated for 1 h at room temperature. The cAMP concentration was determined according to the protocol described in the cAMP assay kit, maintaining the plate at room temperature and in the dark. […] Each well was read for 6 seconds. The untransformed data was then analyzed.
# The following procedure was used to determine the GABAB receptor agonist activity of a compound as reflected by activation of Ca^2+ signaling. HEK TREx cells expressing GABABR1a2 under tetracycline induction control, and Gqi chimeric protein (expressed constitutively), allowing GABABR coupling through the Ca^2+ signaling pathway were used in the experiments.
# Cells were seeded in media containing tetracycline overnight at 100,000 cells/well, in black, clear-bottom, 96-well plates. The following morning, cells were washed twice with 100 μL HBSS buffer per well. Fluorescent Ca^2+ indicator dye was prepared using the materials and procedure described in the F362056 Fluo-4 NW Calcium Assay Kit (Invitrogen, Carlsbad, Calif.). Ten (10) mL of kit buffer and 100 μl of kit Probenecid were added to individual kit dye vials, and rolled back and forth several times to dissolve the dye. Cells were then loaded into the dye solution at 50 μL per well. The cells and dye were incubated for 30 min at 37° C., and then incubated for an additional 30 min at room temperature in the dark. Test compounds are dissolved in HBSS buffer at twice final concentration. Duplicate wells were used for each unique condition. Solution containing the test compound was added to the wells using a FLEXStation II (Molecular Devices, Sunnyvale, Calif.). Using the instrument in kinetic mode in which each well was read every 2 sec over a total collection time of 50 sec fluorescence was measured using an excitation wavelength 494 nm and a detection wavelength of 516 nm. A normalized fluorescence value for each well was calculated using the following procedure.
# Sequence of GABAB receptor (Q9UBS5 20-961): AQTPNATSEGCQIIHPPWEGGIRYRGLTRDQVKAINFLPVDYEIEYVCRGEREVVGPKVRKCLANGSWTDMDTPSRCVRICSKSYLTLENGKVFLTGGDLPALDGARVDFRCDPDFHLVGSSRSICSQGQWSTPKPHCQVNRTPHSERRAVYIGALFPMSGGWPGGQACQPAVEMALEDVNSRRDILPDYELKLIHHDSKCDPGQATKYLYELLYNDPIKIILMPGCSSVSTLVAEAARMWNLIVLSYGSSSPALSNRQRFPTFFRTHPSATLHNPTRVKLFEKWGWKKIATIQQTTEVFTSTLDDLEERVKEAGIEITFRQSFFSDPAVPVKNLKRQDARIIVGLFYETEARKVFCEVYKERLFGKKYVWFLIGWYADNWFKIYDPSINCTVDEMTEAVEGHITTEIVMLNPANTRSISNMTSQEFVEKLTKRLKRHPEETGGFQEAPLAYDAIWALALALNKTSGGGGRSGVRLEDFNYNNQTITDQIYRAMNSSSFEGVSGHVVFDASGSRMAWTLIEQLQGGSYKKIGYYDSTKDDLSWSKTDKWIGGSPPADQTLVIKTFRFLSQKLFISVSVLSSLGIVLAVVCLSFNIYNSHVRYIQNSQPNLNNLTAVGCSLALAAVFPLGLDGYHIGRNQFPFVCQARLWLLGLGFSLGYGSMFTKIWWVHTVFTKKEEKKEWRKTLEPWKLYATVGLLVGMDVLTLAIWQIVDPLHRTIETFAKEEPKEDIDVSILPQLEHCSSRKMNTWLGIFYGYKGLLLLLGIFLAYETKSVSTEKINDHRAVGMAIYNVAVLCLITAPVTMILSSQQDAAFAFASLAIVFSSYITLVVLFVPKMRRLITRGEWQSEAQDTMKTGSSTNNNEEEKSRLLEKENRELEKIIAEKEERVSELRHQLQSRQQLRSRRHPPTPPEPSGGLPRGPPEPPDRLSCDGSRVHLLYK
# Sequence of GABAB receptor (O75899 42-941 partner): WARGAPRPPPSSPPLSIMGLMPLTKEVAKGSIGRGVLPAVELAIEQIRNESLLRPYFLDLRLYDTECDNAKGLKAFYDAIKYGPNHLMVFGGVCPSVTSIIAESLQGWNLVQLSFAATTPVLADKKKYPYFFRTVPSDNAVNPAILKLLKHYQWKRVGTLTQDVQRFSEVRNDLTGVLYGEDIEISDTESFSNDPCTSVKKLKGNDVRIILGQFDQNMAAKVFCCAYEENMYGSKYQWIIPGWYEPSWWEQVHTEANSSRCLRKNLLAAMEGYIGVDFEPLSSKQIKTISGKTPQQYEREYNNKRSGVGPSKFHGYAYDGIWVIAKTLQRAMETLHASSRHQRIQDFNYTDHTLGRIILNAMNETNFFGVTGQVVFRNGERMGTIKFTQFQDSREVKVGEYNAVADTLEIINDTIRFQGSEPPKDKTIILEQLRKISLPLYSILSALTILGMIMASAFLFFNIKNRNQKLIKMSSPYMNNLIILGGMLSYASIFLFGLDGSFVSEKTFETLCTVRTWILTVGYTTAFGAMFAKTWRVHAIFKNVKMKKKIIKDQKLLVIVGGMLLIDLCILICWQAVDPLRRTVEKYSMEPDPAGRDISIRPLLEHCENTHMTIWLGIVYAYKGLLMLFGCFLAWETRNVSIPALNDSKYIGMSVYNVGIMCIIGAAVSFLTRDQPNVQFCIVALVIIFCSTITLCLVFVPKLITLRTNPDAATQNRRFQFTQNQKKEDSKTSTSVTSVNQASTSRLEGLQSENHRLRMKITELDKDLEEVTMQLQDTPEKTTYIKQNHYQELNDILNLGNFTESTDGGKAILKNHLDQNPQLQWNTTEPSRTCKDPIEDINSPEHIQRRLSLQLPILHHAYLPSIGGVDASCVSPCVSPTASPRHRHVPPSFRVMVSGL
row,Compound,GABAB receptor agonist or partial agonist activity
1,NC[C@H](CC(=O)O)c1cc(Br)c(Cl)c(-c2cccnc2)c1 [(3R)-4-amino-3-(5-bromo-4-chloro-3-(3-pyridyl)phenyl)butanoic acid],agonist or partial agonist activity
2,"Cl.NC[C@H](CC(=O)O)c1ccc(Cl)c(NCc2cc(C(F)(F)F)cc(C(F)(F)F)c2)c1 [(3R)-4-amino-3-[3-({[3,5-bis(trifluoromethyl)phenyl]methyl}amino)-4-chlorophenyl]butanoic acid hydrochloride]",agonist or partial agonist activity
3,CC(C)(C)Oc1ccc(CNc2cc([C@H](CN)CC(=O)O)ccc2Cl)cc1.Cl [(3R)-4-amino-3-[3-({[4-(tert-butoxy)phenyl]methyl}amino)-4-chlorophenyl]butanoic acid hydrochloride],agonist or partial agonist activity
4,Cl.N#Cc1cccc(-c2cc([C@H](CN)CC(=O)O)cc(Br)c2Cl)c1 [(3R)-4-amino-3-[3-bromo-4-chloro-5-(3-cyanophenyl]butanoic acid hydrochloride],agonist or partial agonist activity
5,Cl.N#Cc1cccc(-c2cc(Cl)ccc2[C@H](CN)CC(=O)O)c1 [(3R)-4-amino-3-[4-chloro-2-(3-cyanophenyl)phenyl]butanoic acid hydrochloride],agonist or partial agonist activity
6,"Cl.NC[C@H](CC(=O)O)c1ccc(Cl)c(-c2ccc(Cl)cc2Cl)c1 [(3R)-4-amino-3-[4-chloro-3-(2,4-dichlorophenyl)phenyl]butanoic acid hydrochloride]",agonist or partial agonist activity
7,Cl.NC[C@H](CC(=O)O)c1ccc(Cl)c(CCc2ccccn2)c1 [(3R)-4-amino-3-[4-chloro-3-(2-(2-pyridyl)ethyl)phenyl]butanoic acid hydrochloride],agonist or partial agonist activity
8,NC[C@H](CC(=O)O)c1ccc(Cl)c(NC(=O)c2ccccn2)c1 [(3R)-4-amino-3-[4-chloro-3-(2-pyridylcarbonylamino)phenyl]butanoic acid],agonist or partial agonist activity
9,Cl.NC[C@H](CC(=O)O)c1ccc(Cl)c(OCc2ccccn2)c1 [(3R)-4-amino-3-[4-chloro-3-(2-pyridylmethoxy)phenyl]butanoic acid hydrochloride],agonist or partial agonist activity
10,"Cl.NC[C@H](CC(=O)O)c1ccc(Cl)c(-c2cc(F)c(F)c(F)c2)c1 [(3R)-4-amino-3-[4-chloro-3-(3,4,5-trifluorophenyl)phenyl]butanoic acid hydrochloride]",agonist or partial agonist activity
11,"Cl.NC[C@H](CC(=O)O)c1ccc(Cl)c(-c2ccc(Cl)c(Cl)c2)c1 [(3R)-4-amino-3-[4-chloro-3-(3,4-dichlorophenyl)phenyl]butanoic acid hydrochloride]",agonist or partial agonist activity
12,Cl.NC[C@H](CC(=O)O)c1ccc(Cl)c(-c2ccc(O)c(Cl)c2)c1 [(3R)-4-amino-3-[4-chloro-3-(3-chloro-4-hydroxyphenyl)phenyl]butanoic acid hydrochloride],agonist or partial agonist activity
13,Cl.N#Cc1cccc(-c2cc([C@H](CN)CC(=O)O)ccc2Cl)c1F [(3R)-4-amino-3-[4-chloro-3-(3-cyano-2-fluorophenyl)phenyl]butanoic acid hydrochloride],agonist or partial agonist activity
14,Cl.N#Cc1cc(-c2cc([C@H](CN)CC(=O)O)ccc2Cl)ccc1F [(3R)-4-amino-3-[4-chloro-3-(3-cyano-4-fluorophenyl)phenyl]butanoic acid hydrochloride],agonist or partial agonist activity
15,Cc1ccc(-c2cc([C@H](CN)CC(=O)O)ccc2Cl)cc1C#N.Cl [(3R)-4-amino-3-[4-chloro-3-(3-cyano-4-methylphenyl)phenyl]butanoic acid hydrochloride],agonist or partial agonist activity
16,Cl.N#Cc1cc(O)cc(-c2cc([C@H](CN)CC(=O)O)ccc2Cl)c1 [(3R)-4-amino-3-[4-chloro-3-(3-cyano-5-hydroxyphenyl)phenyl]butanoic acid hydrochloride],agonist or partial agonist activity
17,Cl.N#Cc1ccc(O)c(-c2cc([C@H](CN)CC(=O)O)ccc2Cl)c1 [(3R)-4-amino-3-[4-chloro-3-(3-cyano-6-hydroxyphenyl)phenyl]butanoic acid hydrochloride],agonist or partial agonist activity
18,NC[C@H](CC(=O)O)c1ccc(Cl)c(-c2ccsc2)c1 [(3R)-4-amino-3-[4-chloro-3-(3-thienyl)phenyl]butanoic acid],agonist or partial agonist activity
19,Cl.NC[C@H](CC(=O)O)c1ccc(Cl)c(-c2cc(Cl)ccn2)c1 [(3R)-4-amino-3-[4-chloro-3-(4-chloro(2-pyridyl))phenyl]butanoic acid hydrochloride],agonist or partial agonist activity
20,Cc1cc(-c2cc([C@H](CN)CC(=O)O)ccc2Cl)ccc1Cl.Cl [(3R)-4-amino-3-[4-chloro-3-(4-chloro-3-methylphenyl)phenyl]butanoic acid hydrochloride],agonist or partial agonist activity
21,Cl.NC[C@H](CC(=O)O)c1ccc(Cl)c(Cc2ccncc2)c1 [(3R)-4-amino-3-[4-chloro-3-(4-pyridylmethyl)phenyl]butanoic acid hydrochloride],agonist or partial agonist activity
22,Cl.N#Cc1cc(Cl)cc(-c2cc([C@H](CN)CC(=O)O)ccc2Cl)c1 [(3R)-4-amino-3-[4-chloro-3-(5-chloro-3-cyanophenyl)phenyl]butanoic acid hydrochloride],agonist or partial agonist activity
23,Cl.N#Cc1cncc(-c2cc([C@H](CN)CC(=O)O)ccc2Cl)c1 [(3R)-4-amino-3-[4-chloro-3-(5-cyano(3-pyridyl))phenyl]butanoic acid hydrochloride],agonist or partial agonist activity
24,Cl.N#Cc1cccc(-c2cc([C@H](CN)CC(=O)O)ccc2Cl)n1 [(3R)-4-amino-3-[4-chloro-3-(6-cyano(2-pyridyl))phenyl]butanoic acid hydrochloride],agonist or partial agonist activity
25,CN(C(=O)c1ccccc1)c1cc([C@H](CN)CC(=O)O)ccc1Cl.Cl [(3R)-4-amino-3-[4-chloro-3-(N-methylphenylcarbonylamino)phenyl]butanoic acid hydrochloride],agonist or partial agonist activity
26,Cl.NC[C@H](CC(=O)O)c1ccc(Cl)c(OCc2ccccc2)c1 [(3R)-4-amino-3-[4-chloro-3-(phenylmethoxy)phenyl]butanoic acid hydrochloride],agonist or partial agonist activity
27,Cl.NCc1cccc(-c2cccc([C@H](CN)CC(=O)O)c2)c1 [(3R)-4-amino-3-{3-[3-(aminomethyl)phenyl]phenyl}butanoic acid hydrochloride],agonist or partial agonist activity
